Test results taken from US20050090532A1, “Medicinal uses of dihydropyrazoles” (The Procter & Gamble Company, priority 2001, published 2005).

Tested on: VEGF
Assay: VEGF-ELISA assay, VEGF secretion from HL-1 cardiomyocyte cell line
Assay type: cell-based, murine
Details: VEGF production; HL-1 cells, 18 hr, 10 concentrations 200 nM to 100 μM; read-out: EC50 (concentration of compound that induces the production of an amount of VEGF equal to half the maximum amount of VEGF induced by the compound)
Protocol: Any compound of the present invention can be screened by a VEGF-ELISA assay. VEGF secretion is assayed in the HL-1 cardiomyocyte cell line as described in Claycomb. W. C., “HL-1 cells: a cardiac muscle cell line that contracts and retains phenotypic characteristics of the adult cardiomyocyte”, Proc. Natl. Acad. Sci U.S.A., Vol. 95, pp. 2979-84 (1998). For experiments, HL-1 cells are plated in 96-well plates at a density of 2×10^4 cells per well in growth medium: EXCEL 320 media (JRH Biosciences, Lenexia, Kans.) plus 10% fetal bovine serum (BioWhitaker), 100 nM retinoic acid (Sigma, St. Louis, Mo.), 10 μM norepinephrine (Sigma), 10 μg/ml insulin (Life Technologies, Grand Island, N.Y.), 1× non-essential amino acid supplement (Life Technologies), 50 μg/ml endothelial cell growth supplement (Upstate Biotechnology, Lake Placid, N.Y.), 100 units/ml penicillin, 100 units/ml streptomycin (Life Technologies). After 24 hrs, the media is replaced with a low-growth media (HL-1 media with 2% fetal bovine serum and without endothelial cell growth supplement) containing test compounds with 0.5% dimethyl sulfoxide (DMSO). After 18 hrs, conditioned media from the treated cells was assayed for VEGF content with a Murine VEGF-ELISA kit (R&D Systems, Minneapolis, Minn.). The amount of VEGF secreted into the media over an 18 hr period is normalized to positive control wells which are treated with a maximally effective concentration (1 mM) of deferoxamine mesylate (Sigma, St. Louis) and are reported as “percent activity,” where the VEGF in unstimulated wells is defined as 0% and the VEGF in wells treated with 1 mM deferoxamine is defined as 100%. Potency is determined by stimulating cells with 10 concentrations of test compounds (200 nM to 100 μM) and fitting the data to a variable slope sigmoidal dose-response curve using GraphPad Prism version 3.00 for Windows 95 (GraphPad Software, San Diego, Calif.). Determinations for each test compound are performed in three separate experiments and the means ± standard deviation of the […] and maximum response are evaluated. Compounds for pharmaceutical use are selected based upon the greatest percent activity.

| Compound | EC50 [µM] |
| --- | --- |
| Cc1ccc(C2CC(c3ccccc3O)=NN2c2ccccn2)cc1 (centres unmarked) [Example 5, 2-(1-Pyridin-2-yl-5-p-tolyl-4,5-dihydro-1H-pyrazol-3-yl)-phenol] | 5.7 |
| OCCN1N=C(c2ccccc2O)CC1c1ccccn1 (centres unmarked) [Example 12, 2-[1-(2-Hydroxy-ethyl)-5-pyridin-2-yl-4,5-dihydro-1H-pyrazol-3-yl]-phenol] | 65 |
| CN(C)c1ccc(C2CC(c3ccccc3)=NN2c2ccccc2)cc1 (centres unmarked) [Example 17, [4-(2,5-Diphenyl-3,4-dihydro-2H-pyrazol-3-yl)-phenyl]-dimethyl-amine] | 6 |
| Oc1ccccc1C1=NN(c2ccccn2)C(c2ccccc2O)C1 (centres unmarked) [Example 9, 2-[5(2-hydroxy-phenyl)-1-pyridin-2-yl-4,5-dihydro-1H-pyrazol-3-yl]-phenol] | 5.4 |
| Oc1ccccc1C1=NN(c2nc3ccccc3s2)C(c2ccccc2)C1 (centres unmarked) [Example 4, 2-(1-Benzothiazol-2-yl-5-phenyl-4,5-dihydro-1H-pyrazol-3-yl)-phenol] | 27 |
| Clc1cccc(C2CC(c3ccccn3)=NN2c2ccccc2)c1 (centres unmarked) [Example 16, 2-[5-(3-Chloro-phenyl)-1-phenyl-4,5-dihydro-1H-pyrazol-3-yl]-pyridine] | 1.7 |
| c1ccc(C2=NN(c3ccccn3)C(c3ccccc3)C2)cc1 (centres unmarked) [Example 2, 2-(3,5-Diphenyl-4,5-dihydro-pyrazol-1-yl)-pyridine] | 6 |
| Cc1ccc(N2N=C(c3ccccn3)CC2c2ccccc2)cc1 (centres unmarked) [Example 14, 2-(5-Phenyl-1-p-tolyl-4,5-dihydro-1H-pyrazol-3-yl)-pyridine] | 2 |
| c1ccc(C2CC(c3ccccn3)=NN2c2ccccc2)cc1 (centres unmarked) [Example 1, 2-(1,5-Diphenyl-4,5-dihydro-1H-pyrazol-3-yl)-pyridine] | 23 |
| CN1N=C(c2ccc3ccccc3c2)CC1c1ccc(C(F)(F)F)cc1 (centres unmarked) [Example 20, 1-Methyl-3-naphthalen-2-yl-5-(4-trifluoromethyl-phenyl)-4,5-dihydro-1H-pyrazole] | 13 |
| Brc1ccc(N2N=C(c3ccccn3)CC2c2ccccc2)cc1 (centres unmarked) [Example 15, 2-[1-(4-Bromo-phenyl)-5-phenyl-4,5-dihydro-1H-pyrazol-3-yl]-pyridine] | 6.3 |
| CN1N=C(c2ccc3ccccc3c2)CC1c1ccc(F)cc1 (centres unmarked) [Example 19, 5-(4-Fluoro-phenyl)-1-methyl-3-naphthalen-2-yl-4,5-dihydro-1H-pyrazole] | 3.6 |
| COc1ccc(C2CC(c3ccc4ccccc4c3)=NN2C)cc1 (centres unmarked) [Example 18, 5-(4-Methoxy-phenyl)-1-methyl-3-naphthalen-2-yl-4,5-dihydro-1H-pyrazole] | 11 |
| Oc1ccccc1C1=NN(c2ccccn2)C(c2ccccc2)C1 (centres unmarked) [Example 3, 2-(5-Phenyl-1-pyridin-2-yl-4,5-dihydro-1H-pyrazol-3-yl)-phenol] | 1.7 |
| CN1N=C(c2ccccc2O)CC1c1nccs1 (centres unmarked) [Example 11, 2-(1-Methyl-5-thiazol-2-yl-4,5-dihydro-1H-pyrazol-3-yl)-phenol] | 12 |
| N#CCCN1N=C(c2ccccc2O)CC1c1ccccn1 (centres unmarked) [Example 13, 3-[3-(2-Hydroxy-phenyl)-5-pyridin-2-yl-4,5-dihydro-pyrazol-1-yl]-propionitrile] | 18 |
| COc1ccccc1C1CC(c2ccccc2O)=NN1c1ccccn1 (centres unmarked) [Example 7, 2-[5-(2-Methoxy-phenyl)-1-pyridin-2-yl-4,5-dihydro-1H-pyrazol-3-yl]-phenol] | 5.5 |
| COc1ccc(C2CC(c3ccccc3O)=NN2c2ccccn2)cc1 (centres unmarked) [Example 6, 2-[5-(4-Methoxy-phenyl)-1-pyridin-2-yl-4,5-dihydro-1H-pyrazol-3-yl]-phenol] | 5.68 |
| CN1N=C(c2ccccc2O)CC1c1ccccn1 (centres unmarked) [Example 10, 2-(1-Methyl-5-pyridin-2-yl-4,5-dihydro-1H-pyrazol-3-yl)-phenol] | 92 |
| Oc1ccccc1C1=NN(c2ccccn2)C(c2ccccn2)C1 (centres unmarked) [Example 8, 2-(1,5-Di-pyridin-2-yl-4,5-dihydro-1H-pyrazol-3-yl)-phenol] | 5.4 |
